Assay results: ChEMBL document CHEMBL1201862, “PubChem BioAssay data set” (2004)
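48-hour exposure; five concentrations; linearly interpolated endpoints. Here, GI50 denotes the concentration required for 50% inhibition of growth.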 Activity calls are given as the source filed them. No stated cut-off is given here; in the data, active = GI50 up to about 1.1 µM and inactive = higher.

Legend:
Assay in all cases: NCI anticancer screen, dose series, 48 h
[1] = test system: SF-295
[2] = test system: RXF 393
[3] = test system: LOX IMVI
[4] = test system: CCRF-CEM
[5] = test system: SN12C
[6] = test system: K562
[7] = test system: OVCAR-3
[8] = test system: SK-MEL-28
[9] = test system: SW-620
[10] = test system: HOP-92
[11] = test system: OVCAR-4
[12] = test system: OVCAR-8
[13] = test system: U-251
[14] = test system: SK-MEL-2
[15] = test system: HCC 2998
[16] = test system: HT-29
[17] = test system: NCI-H226
[18] = test system: OVCAR-5
[19] = test system: SF-268
[20] = test system: A549

Cc1[nH]c(=O)nc(S)c1C(=O)NC1C2CCCCC2NC2CCCCC21 (centres undefined)
GI50 [1]: 17.2 µM (inactive) | GI50 [2]: 13.5 µM (inactive) | GI50 [3]: 27 µM (inactive) | GI50 [4]: 14.8 µM (inactive) | GI50 [5]: 19.8 µM (inactive) | GI50 [6]: 4.57 µM (inactive) | GI50 [7]: 16 µM (inactive) | GI50 [8]: 11.2 µM (inactive) | GI50 [9]: 18.1 µM (inactive) | GI50 [10]: 18.5 µM (inactive) | GI50 [11]: 18.3 µM (inactive) | GI50 [12]: 15.1 µM (inactive) | GI50 [13]: 13.9 µM (inactive) | GI50 [14]: 17.4 µM (inactive) | GI50 [15]: 25 µM (inactive) | GI50 [16]: 21.4 µM (inactive) | GI50 [17]: 17.3 µM (inactive) | GI50 [18]: 18.4 µM (inactive)

O=C1CC(=O)N(c2ccccc2)N1/C(=C/c1ccccc1)c1ccccc1
GI50 [1]: 17.3 µM (inactive) | GI50 [2]: 16.7 µM (inactive) | GI50 [3]: 1.6 µM (inactive) | GI50 [4]: 0.336 µM (active) | GI50 [5]: 20.5 µM (inactive) | GI50 [6]: 1.54 µM (inactive) | GI50 [7]: 20.3 µM (inactive) | GI50 [8]: 12.3 µM (inactive) | GI50 [9]: 17.3 µM (inactive) | GI50 [10]: 13.2 µM (inactive) | GI50 [11]: 20.5 µM (inactive) | GI50 [12]: 19.8 µM (inactive) | GI50 [13]: 14.3 µM (inactive) | GI50 [19]: 16.2 µM (inactive) | GI50 [20]: 26.1 µM (inactive) | GI50 [14]: 23.7 µM (inactive) | GI50 [15]: 20.1 µM (inactive) | GI50 [16]: 20 µM (inactive) | GI50 [17]: 21.9 µM (inactive) | GI50 [18]: 29.2 µM (inactive)

CN1C(=O)[C@@H]2[C@@H]3c4ccccc4N[C@@H]3c3[nH]c4ccccc4c3[C@@H]2C1=O
GI50 [1]: 18.6 µM (inactive) | GI50 [2]: 25 µM (inactive) | GI50 [3]: 20.6 µM (inactive) | GI50 [4]: 17.3 µM (inactive) | GI50 [5]: 29.5 µM (inactive) | GI50 [6]: 22.3 µM (inactive) | GI50 [7]: 16.6 µM (inactive) | GI50 [8]: 24.5 µM (inactive) | GI50 [9]: 29.2 µM (inactive) | GI50 [10]: 20 µM (inactive) | GI50 [11]: 16.9 µM (inactive) | GI50 [12]: 21.6 µM (inactive) | GI50 [13]: 23.8 µM (inactive) | GI50 [19]: 32.6 µM (inactive) | GI50 [20]: 22.8 µM (inactive) | GI50 [14]: 17.3 µM (inactive) | GI50 [15]: 18.2 µM (inactive) | GI50 [16]: 36.1 µM (inactive) | GI50 [17]: 60.8 µM (inactive) | GI50 [18]: 20.1 µM (inactive)

Cn1c(=O)[nH]c2c(c1=O)C(=O)CN2
GI50 [1]: > 100 µM (inactive) | GI50 [2]: > 100 µM (inactive) | GI50 [3]: > 100 µM (inactive) | GI50 [4]: > 100 µM (inactive) | GI50 [5]: > 100 µM (inactive) | GI50 [6]: > 100 µM (inactive) | GI50 [8]: > 100 µM (inactive) | GI50 [9]: > 100 µM (inactive) | GI50 [10]: < 0.01 µM (active) | GI50 [11]: > 100 µM (inactive) | GI50 [12]: > 100 µM (inactive) | GI50 [13]: > 100 µM (inactive) | GI50 [19]: > 100 µM (inactive) | GI50 [20]: > 100 µM (inactive) | GI50 [14]: > 100 µM (inactive) | GI50 [15]: > 100 µM (inactive) | GI50 [17]: 36.2 µM (inactive) | GI50 [18]: > 100 µM (inactive)

CC(=O)NC(Cc1ccsc1)C(=O)O (centres undefined)
GI50 [1]: > 62.2 µM (inactive) | GI50 [2]: > 100 µM (inactive) | GI50 [3]: > 100 µM (inactive) | GI50 [4]: > 100 µM (inactive) | GI50 [5]: > 100 µM (inactive) | GI50 [6]: > 100 µM (inactive) | GI50 [7]: > 100 µM (inactive) | GI50 [8]: > 100 µM (inactive) | GI50 [9]: > 100 µM (inactive) | GI50 [10]: > 100 µM (inactive) | GI50 [11]: > 100 µM (inactive) | GI50 [12]: > 100 µM (inactive) | GI50 [13]: > 100 µM (inactive) | GI50 [19]: > 100 µM (inactive) | GI50 [20]: > 100 µM (inactive) | GI50 [14]: > 100 µM (inactive) | GI50 [15]: > 100 µM (inactive) | GI50 [16]: > 100 µM (inactive) | GI50 [17]: > 100 µM (inactive) | GI50 [18]: > 100 µM (inactive)

O=C(N/N=C\C(F)(F)F)c1ccncc1
GI50 [1]: 30.5 µM (inactive) | GI50 [2]: 13.9 µM (inactive) | GI50 [3]: > 100 µM (inactive) | GI50 [4]: 3.48 µM (inactive) | GI50 [5]: 92.3 µM (inactive) | GI50 [6]: 7.62 µM (inactive) | GI50 [7]: 22.3 µM (inactive) | GI50 [8]: 80.7 µM (inactive) | GI50 [9]: 37.8 µM (inactive) | GI50 [10]: > 100 µM (inactive) | GI50 [11]: > 100 µM (inactive) | GI50 [12]: 48.2 µM (inactive) | GI50 [13]: 26.9 µM (inactive) | GI50 [14]: > 100 µM (inactive) | GI50 [15]: 18.5 µM (inactive) | GI50 [16]: 7.59 µM (inactive) | GI50 [17]: 62.2 µM (inactive) | GI50 [18]: > 100 µM (inactive)
